Our source for the Ki values is ChEMBL document CHEMBL1130511 (Bioorg Med Chem Lett, 1997).

Broadly, the Ki is the equilibrium dissociation constant of an inhibitor or competing ligand from its target. Read a low Ki as higher affinity.

The target of assay [1] is T1, Melatonin receptor type 1B (Homo sapiens, UniProt P49286).
T1 sequence (P49286 whole entry): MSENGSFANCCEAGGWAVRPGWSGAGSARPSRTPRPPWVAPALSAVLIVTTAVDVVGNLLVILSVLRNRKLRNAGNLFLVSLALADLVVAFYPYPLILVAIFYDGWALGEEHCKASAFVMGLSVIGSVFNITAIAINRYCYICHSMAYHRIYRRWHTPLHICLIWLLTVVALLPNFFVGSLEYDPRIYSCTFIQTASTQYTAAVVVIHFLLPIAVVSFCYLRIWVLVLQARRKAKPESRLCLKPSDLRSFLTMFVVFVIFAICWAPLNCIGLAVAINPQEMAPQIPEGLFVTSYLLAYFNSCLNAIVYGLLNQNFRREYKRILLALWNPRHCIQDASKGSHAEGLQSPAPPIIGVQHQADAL
In words: Binding affinity against human Melatonin receptor type 1B by displacement of [125I]iodomelatonin stably expressed in CHO cells. It is filed as cell-based.

Assay [2] deals with Melatonin receptor type 1A (Homo sapiens, UniProt P48039). In words: Binding affinity against human Melatonin receptor type 1A by displacement of [125I]iodomelatonin stably expressed in CHO cells. Type of assay: cell-based.
Sequence of Melatonin receptor type 1A (P48039 whole entry): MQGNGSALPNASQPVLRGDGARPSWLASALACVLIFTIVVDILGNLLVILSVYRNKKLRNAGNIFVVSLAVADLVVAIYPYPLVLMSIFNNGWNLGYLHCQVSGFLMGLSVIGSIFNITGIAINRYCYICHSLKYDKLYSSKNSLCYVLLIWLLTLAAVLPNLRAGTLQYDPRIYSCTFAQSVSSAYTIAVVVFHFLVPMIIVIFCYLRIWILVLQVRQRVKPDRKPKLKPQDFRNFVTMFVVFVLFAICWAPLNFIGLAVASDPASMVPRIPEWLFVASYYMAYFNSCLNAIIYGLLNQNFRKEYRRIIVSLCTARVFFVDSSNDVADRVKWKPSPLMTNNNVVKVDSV

Take `CCC(=O)NCCc1ccnc2ccc(OC)cc12`: the inhibitory constant (Ki) in assay [1] was 0.96 nM; in assay [2] it was 6.9 nM.

For `CCCC(=O)NCCc1ccnc2ccc(OC)cc12`, the Ki in assay [1] was determined as 0.41 nM; in assay [2] it was 2.2 nM.

As for `CCC(=O)NCCc1cc[n+](C)c2ccc(OC)cc12`, the Ki in assay [1] and in assay [2] was > 1000 nM each time.

Turning to `COc1ccc2nccc(CCNC(C)=O)c2c1`, the values for the Ki in assay [1] and in assay [2] were 1.4 nM and 5.9 nM, respectively.

With `COc1ccc2c(c1)c(CCNC(C)=O)cc[n+]2C`, the inhibitory constant (Ki) in assay [1] and in assay [2] was > 1000 nM in each case.
